Several values for one entry are separate records, joined by “and”; a condition that tells them apart may be missing. Equal entries are not always repeated.
Key:
Human PPARγ = biological target: T1, Human PPARγ (Homo sapiens, UniProt P37231); experiment: Human PPARγ transactivation assay (luciferase reporter, HEK293 cells); type: cell-based
T1 construct: Human full length PPARγ cDNA was cloned into pSG5 expression vector; expressed in transfected cells; host or cells: HEK293
T1 sequence (P37231 1-505): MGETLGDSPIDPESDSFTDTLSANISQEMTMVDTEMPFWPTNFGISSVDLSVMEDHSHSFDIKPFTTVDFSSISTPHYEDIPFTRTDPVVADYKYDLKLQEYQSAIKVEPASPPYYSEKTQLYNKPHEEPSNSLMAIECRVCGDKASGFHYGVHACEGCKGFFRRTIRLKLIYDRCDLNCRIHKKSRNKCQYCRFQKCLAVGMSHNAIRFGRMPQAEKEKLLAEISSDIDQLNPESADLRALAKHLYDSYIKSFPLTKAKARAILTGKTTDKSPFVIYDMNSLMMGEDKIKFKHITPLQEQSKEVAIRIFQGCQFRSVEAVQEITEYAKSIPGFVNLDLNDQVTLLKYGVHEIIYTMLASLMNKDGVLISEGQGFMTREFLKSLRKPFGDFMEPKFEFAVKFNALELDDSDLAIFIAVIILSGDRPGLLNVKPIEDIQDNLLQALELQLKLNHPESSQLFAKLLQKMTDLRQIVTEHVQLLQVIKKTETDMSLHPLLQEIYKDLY
Protocol: The assay was designed as in the reference, Biochem. Biophys. Res. Comm. 175:865-871, 1991, the disclosure of which is incorporated by reference for the teaching of the assay.
Human PPARγ activity was evaluated by transactivation using a luciferase reporter gene. […] Human full length PPARγ cDNA was cloned into pSG5 expression vector (Stratagene, Lo Jolla, Calif.).
HEK293 cells were seeded in 24 well plates and grown in DMEM supplemented with 10% (v/v) FCS. After 24 hours, they were transfected with 100 ng of hPPARγ receptor and 300 ng of AOX-3×PPRE-LUC reporter construct per well using Fugen 6 transfection reagent (Roche, Indianapolis, Ind.). […] The control was 0.1% DMSO. After 48 hours, transactivation activity was determined by luciferase assay using Steady Glow reagent (Promega, Madison, Wis.).

[1] = test system: genetically diabetic db/db BL/6J mice; experiment: Screening in db/db BL/6J mice: reduction of plasma glucose; type: in vivo; conditions: 10 days
Protocol: The protocol was designed as in references. • 1.
The screening of compounds was based on their ability to reduce the plasma glucose levels in genetically diabetic db/db BL/6J mice.
Male db/db mice (obtained from the Animal House of Nicholas Piramal Research Centre, Goregaon, Mumbai, India) were used for this study (body weight in the range of 30-40 g and age is 6-8 weeks) and were kept eight per cage in individually ventilated cages at controlled temperature (22±1° C.) and humidity (45±5%). Food and water were provided ad libitum during their laboratory stay, except for four hours fasting prior to blood sample collection. 12 hours light and dark cycle was followed during the whole study period.
After 4 hours fasting blood samples were collected from mice. Mice showing plasma glucose levels between 300 to 500 mg/dl were divided in groups (8-10 per group) such that the mean plasma glucose levels and variation within the group, for each group, is nearly the same. After grouping, mice in respective groups received treatment with 0.5% CMC vehicle, standard compound or test compounds for 10 days.
After 4 hours fasting, mice were anaesthetized using isoflurane (inhalation anesthetic), and blood samples were collected through the retro orbital plexus. Collected blood samples were centrifuged at 7000 rpm for 10 minutes at 4° C.; Separated plasma was used for estimation of plasma glucose using diagnostic kits (Diasys, Germany). Plasma glucose levels of treated groups were normalized with control group using the following formula, which accounted for the changes in control group.
Formula used for normalization was *: {1−(Ratio of mean plasma glucose levels of control group on day 10 to day 0)/(Ratio of plasma glucose levels of treated group on day 10 to day 0)}×100.

lean C57Bl6/J mice = experiment: Evaluation of antiobesity, acute study: food intake in fasted lean mice; type: in vivo; conditions: 100 mg/kg intraperitoneally, 2 hours after food introduction, p<0.001 vs vehicle
Excerpt: The effect of standard (Sibutramine), Compound 1 and Compound 11 on food intake in lean C57Bl6/J mice at 2, 4, 6 and 24 hrs post-food introductions is indicated.
The assay was designed as in reference, PCT publication WO 2003086306, the disclosure of which is incorporated by reference for the teaching of the assay.
Male C57Bl6/J mice, weighing 20-25 g, were housed individually in the animal facility. Water and Chow (Amrut Laboratory Animal feed, Sangli, Maharashtra, India) were available ad libitum. One day before the study, the animals were weighed and separated into treatment groups having similar average body weight. For the experiment, the animals were deprived of food overnight for 16 hours. They were dosed intraperitoneally with test compounds (100 mg/kg) or comparator standard (Sibutramine, 3 mg/kg) in saline vehicle (10 mL/kg). Half an hour after drug administration the animals were presented with a pre-weighed amount of food in the food cup. Food that remained in the cup was measured at various time points. The effect of standard, and test compounds on food intake in fasted lean C57Bl6/J mice at 2, 4, 6 and 24 hrs post-food introductions was evaluated. […] (*** p<0.001 vs vehicle treated controls) (b) Chronic Study

Mouse PPARγ = biological target: T2, Mouse PPARγ (Mus musculus, UniProt P37238); experiment: Mouse PPARγ assay (TransAM PPARγ ELISA, 3T3-L1 fibroblasts); type: cell-based; conditions: 72 hrs, Compound 1 50 μM, Rosiglitazone 10 μM
T2 construct: endogenous in cells; host or cells: 3T3-L1 fibroblasts
T2 sequence (P37238 1-505): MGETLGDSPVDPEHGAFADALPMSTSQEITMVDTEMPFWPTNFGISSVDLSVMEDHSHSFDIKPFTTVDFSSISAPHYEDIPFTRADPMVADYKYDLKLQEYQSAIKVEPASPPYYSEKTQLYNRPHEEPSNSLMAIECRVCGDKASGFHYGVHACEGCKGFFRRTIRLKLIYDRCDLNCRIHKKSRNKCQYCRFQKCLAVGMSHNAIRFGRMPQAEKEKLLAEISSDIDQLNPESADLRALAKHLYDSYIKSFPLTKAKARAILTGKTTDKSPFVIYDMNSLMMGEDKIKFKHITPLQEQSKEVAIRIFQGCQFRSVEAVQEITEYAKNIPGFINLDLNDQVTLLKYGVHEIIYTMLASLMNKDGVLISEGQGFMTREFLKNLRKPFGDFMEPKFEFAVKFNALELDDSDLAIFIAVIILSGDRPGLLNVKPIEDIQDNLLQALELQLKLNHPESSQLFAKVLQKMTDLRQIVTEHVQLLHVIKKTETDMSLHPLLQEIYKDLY
Protocol: The assay was designed as in the reference, Blood, 104(5), 1361-8, 2004, the disclosure of which is incorporated by reference for the teaching of the assay.
3T3-L1 fibroblasts were seeded in 6-well plates at a density of 4×10^4 cells/well and cultured in DMEM containing 10% calf serum. […] The plates were incubated for 72 hrs at 37° C. in a CO2 incubator with fresh medium containing test substances added after first 48 hrs. After 72 hrs, the medium was removed; the cell layer was washed and processed for the PPARγ assay as per the instruction of the manufacturer (Active Motif, North America, California, USA). PPARγ activation was determined using 96-well ELISA assay as per the instruction manual (TransAM PPARγ. Active Motif, Cat 0.40196).

[2] = test system: diet induced obese (DIO) C57Bl6/J mice; experiment: Evaluation of antiobesity, chronic study: diet induced obese mice; type: in vivo; conditions: 200 mg/kg intraperitoneally, 10 days of treatment
Protocol: Diet induced obese (DIO) mice were treated with either standard (Sibutramine) or Compound 1 for 10 days.
Cumulative body weight gain of diet induced obese (DIO) mice treated with either standard (Sibutramine) or Compound 1 for 10 days is indicated.
The assay was designed as in the reference, British Journal of Pharmacology, 132, 1898-1904, 2001, the disclosure of which is incorporated by reference for the teaching of the assay. Male C57Bl6/J mice (3-4 weeks of age) were housed in groups of 10 animals per cage in the animal facility. High fat diet (D12451 Research Diets Inc., New Brunswick, N.J. 08901, USA), 45% kcal from fat) and water were provided ad libitum for 14 weeks. After this period, the animals were housed individually in cages. The animals were weighed and separated into groups with similar body weight. They were acclimatized to the experimental procedures for 2 days Animals were dosed intraperitoneally with test compound (200 mg/kg) or the standard (Sibutramine, 3 mg/kg) in 10 ml/kg of 0.5% CMC vehicle between 10:00 h-12:00 h. After drug administration the animals were presented with a pre-weighed amount of food in the food cup. Weight of feed remaining in the cup and body weight were recorded daily just prior to dosing. The change in weight and cumulative food intake were computed. The results are indicated in FIG. 2 and FIG. 3. • Conclusions: 1. […]

[3] = test system: insulin resistant adipocytes (differentiated 3T3 L1 fibroblasts); experiment: In vitro model exhibiting insulin resistance: 14C-2-deoxyglucose uptake in dexamethasone-treated adipocytes; type: cell-based; conditions: test compound 10 μM/mL, Rosiglitazone 0.1 μM; for Fold Vehicle (fold activity over vehicle, glucose uptake): vehicle = 1.0, cut off for activity 1.50 fold
Protocol: The assay was designed as in reference, British Journal of Pharmacology, 130, 351-58, 2000, the disclosure of which is incorporated by reference for the teaching of the assay. The solution of test compound (10 μM/mL) was prepared in DMSO. […] Differentiation into adipocytes was induced by known methods as described below. (J. Biol. […] 3T3 L1 fibroblasts were seeded in 24- or 6-well plates at a density of 0.5-2×10^4 cells/well and were allowed to reach maximal confluency. The confluent fibroblasts were exposed to culture medium for 2 days. […] The mature adipocytes were exposed to dexamethasone, 100 nM added in ethanol, in culture medium and incubated for 2 days. […] The test compound was also present during this period. After 3-4 hours, the medium was aspirated and replaced with Kreb's Ringer phosphate (KRP) buffer at pH 7.4 and with human/porcine insulin, 200 nM. The cells were incubated for 30 minutes at 37° C. […] After exactly 5 minutes, the plates were transferred to ice trays and medium was rapidly aspirated. The cell layer was washed twice with ice-cold phosphate buffered saline, (PBS), pH 7.4. […] Non-specific glucose uptake was assayed in wells exposed to cytochalasin B, inhibitor of glucose transport. […] Statistical analysis was performed using unpaired t-test.

Structure (SMILES)	% of Rosiglitazone (comparison with Rosiglitazone, glucose uptake) [3] [%]	Fold Vehicle (fold activity over vehicle, glucose uptake) [3]	further results
CC(=O)N1CCN(c2ccc(Oc3ncc(NS(=O)(=O)c4ccc(Cl)cc4Cl)cc3Cl)cc2)CC1 [Compound 1, N-(6-(4-(4-Acetylpiperazin-1-yl)phenoxy)-5-chloropyridin-3-yl)-2,4-dichlorobenzene-sulfonamide]	61.4	2.10 ± 0.05	PPARγ activity (% of rosiglitazone) (Human PPARγ): 6.4 % of rosiglitazone; Normalization with control (plasma glucose reduction) ([1]; 100 mpk bid): 46.07 ± 4.55; Inhibition of food intake (lean C57Bl6/J mice): effective in inhibiting food intake; PPARγ activity (% of rosiglitazone) (Mouse PPARγ): 5.1 % of rosiglitazone; Cumulative body weight gain [2]: effective in reducing cumulative body weight gain; Cumulative food intake [2]: effective in reducing cumulative food intake; melting point: 215 to 216 °C
COc1ccc(OC)c(S(=O)(=O)Nc2cnc(Oc3ccc(N4CCN(C(C)=O)CC4)cc3)c(Cl)c2)c1 [Compound 4, N-(6-(4-(4-Acetylpiperazin-1-yl)phenoxy)-5-chloropyridin-3-yl)-2,5-dimethoxy-benzenesulfonamide]	41.33	1.55 ± 0.03	
CC(=O)N1CCN(c2ccc(Oc3ncc(NS(=O)(=O)c4ccc(C(F)(F)F)cc4Cl)cc3Cl)cc2)CC1 [Compound 5, N-(6-(4-(4-Acetylpiperazin-1-yl)phenoxy)-5-chloropyridin-3-yl)-2-chloro-4-(trifluoromethyl)benzenesulfonamide]	63.94	1.85 ± 0.04	
CC(=O)N1CCN(c2ccc(Oc3ncc(NS(=O)(=O)c4ccc(Cl)c(Cl)c4)cc3Cl)cc2)CC1 [Compound 6, N-(6-(4-(4-Acetylpiperazin-1-yl)phenoxy)-5-chloropyridin-3-yl)-3,4-dichlorobenzene-sulfonamide]	69.76	1.93 ± 0.06	
O=S(=O)(Nc1cnc(Oc2ccc(N3CCNCC3)cc2)c(Cl)c1)c1ccc(Cl)cc1Cl [Compound 11, 2,4-Dichloro-N-(5-chloro-6-(4-(piperazin-1-yl)phenoxy)pyridin-3-yl)benzene sulfonamide]			Inhibition of food intake (lean C57Bl6/J mice): effective in inhibiting food intake
CC(=O)N1CCN(c2ccc(Oc3ncc(NC(=O)CCC(=O)O)cc3Cl)cc2)CC1 [Compound 14, 4-(6-(4-(4-Acetylpiperazin-1-yl)phenoxy)-5-chloropyridin-3-ylamino)-4-oxobutanoic acid]	27.5	1.49 ± 0.05	Normalization with control (plasma glucose reduction) ([1]; 100 mpk bid): Inactive
O=S(=O)(Nc1cnc(Oc2ccccc2-c2nc3ccccc3s2)c(Cl)c1)c1ccc(Cl)cc1Cl [Compound 15, N-(6-(2-(Benzo[d]thiazol-2-yl)phenoxy)-5-chloropyridin-3-yl)-2,4-dichlorobenzene-sulfonamide]	36.7	2.0 ± 0.13	
CN(CCOc1ccc(CC2SC(=O)NC2=O)cc1)c1ccccn1 (stereo not shown) [Rosiglitazone, reference compound]			Normalization with control (plasma glucose reduction) ([1]; Rosiglitazone 5 mpk bid): 55.73 ± 4.46 and 53.34 ± 4.11
